Results published in US20250002461A1, “DEUTERATED (TRIFLUOROMETHYL)PYRIMIDINE-2-AMINE COMPOUNDS AS POTENTIATORS OF THE HMRGX1 RECEPTOR” (Eli Lilly and Company, priority 2021, published 2025).
Like-named read-outs stand apart in the source and are kept apart here.

Key:
human MrgX1 receptor = molecular target: T1, human MrgX1 receptor (Homo sapiens, UniProt Q96LB2); test: IP1 cellular assay for EC50 determination against hMrgX1 by HTRF; type: cell-based; details: for EC50: HEK293 cells expressing human MrgX1, in presence of EC15 of BAM8-22, geometric mean (SEM, n), read-out: Relative EC50 (SEM, n); for Max (Mean ± SEM): maximum stimulation relative to saturating BAM8-22
T1 construct: expressed in transfected cells
Description: IP1 Cellular Assay for EC50 Determination Against hMrgX1 by HTRF
Cell plating: HEK293 cells stably expressing the recombinant human MrgX1 receptor were expanded in culture flasks (Corning, T150), using growth media containing DMEM with glutamine (GIBCO™ Cat. #11960-044) supplemented with 10% heat-inactivated FBS (HyClone™, Cat. #CH30073), 1% penicillin/streptomycin (HyClone™, Cat. #SV30010; 10,000 U/mL penicillin; 10,000 μg/mL streptomycin in 0.85% NaCl), 20 mM HEPES (GIBCO™, Cat. #15630122) and 0.3 mg/mL G418 (GIBCO™ Cat. #11811031). When cell monolayers achieved a level of 80-90% confluence, monolayers were washed once with 10 mL of DPBS (HyClone™, Cat. #14190-144), dissociated using TrypLE™ Express enzyme cell dissociation media (GIBCO™ Cat. #12605-010), and were diluted by addition of 10 mL DPBS. Dissociated cells were transferred to a sterile 50 mL conical tube, pelleted by centrifugation at 300×g to remove the growth and dissociation media, and diluted to 1M cells/mL into DMEM for plating.
IP1 Potency and Efficacy Determination: Test compounds were dissolved in DMSO to a concentration of 10 mM and serially diluted in DMSO to obtain a 10-point concentration response stock dilution plate. Growth media was removed from the cell plate, and the stock 10-point dilution plate was diluted into media and stamped into the cell plate at a concentration 2× higher than the final test concentration of […] maximum. The endogenous agonist BAM8-22 (Tocris-BioScience Cat. #1763) was diluted to the EC15, determined independently at a minimum of n=3, into the cell plate and incubated at room temperature for 120 min. Subsequently, half the volume each of anti-IP1 cryptate and d2-labeled IP1 in lysis buffer, supplied with the IP-One Gq Kit (CisBio Cat. #62IPAPEC) was added to the cell plate to initiate cell lysis, and incubated for 60 min at room temperature in the dark. Fluorescence was then determined at 620 and 665 nm (˜100 us following laser excitation).
Data Analysis: Fluorescent ratios were determined as the ratio of the fluorescence emission at 665 nm over 620 nm and converted to IP1 concentration, using the IP1 standard curve generated in a separate plate, following the manufacturer's instructions. The IP1 concentration was then plotted as a function of compound concentration. […]

[1] = Plasma and brain homogenate protein binding by equilibrium dialysis; type: in vitro ADME, mouse
Description: Determination of plasma and brain protein binding: Mouse plasma and brain homogenate protein binding was determined in vitro using equilibrium dialysis, as described elsewhere [Zamek-Gliszczynski et al., J Pharm Sci, 101:1932-1940, 2012]. The results are reported as fraction unbound in plasma (fu,plasma) and brain (fu,brain) which are then utilized to calculate Kp,uu,brain as described below. Mouse fu,plasma and fu,brain of Example 1 was determined to be 0.0667 and 0.011, respectively.

[2] = Determination of pharmacokinetics in mice; type: in vivo, mouse; details: male CD-1 mice; for CLIV / Vd: IV 1 mg/kg; for Vd / bioavailability: mouse, whole blood (dried blood spot); for Vd: read-out: Vd, ss; for bioavailability: PO 10 mg/kg vs IV 1 mg/kg
Description: Determination of Pharmacokinetics in Mice
Subjects: The subjects for these studies were male CD-1 mice from either Envigo, (Indianapolis, IN, USA) or Charles River Laboratories, Inc (Raleigh, NC, USA) between 4-12 weeks old at time of test. Each dosing group has three animals, and food and water is available ad libitum.
Dosing and Sample Collection: The test compound was administered intravenously (IV) via tail vein at 1 mg/kg (using vehicle: 25% (v/v) Dimethylacetamide (DMA), 15% (v/v) Ethanol (EtOH), 10% (v/v) Propylene Glycol (PG), 25% 2-Pyrrolidone (2-P), and 25% purified water) and orally (PO) via gavage needle at 10 mg/kg (using a vehicle of 1% (w/v) Hydroxyethylcellulose, 0.25% (w/v) Polysorbate 80, 0.05% (v/v) Antifoam1510-US in purified water quantum satis. Blood for dried blood spot (DBS) collection (approximately 20 μL) was collected from each available animal via a saphenous vein utilizing K2EDTA capillary tubes and stored at ambient temperature until analysis. Serial blood samples are collected at 0.08, 0.25, 0.5, 1, 2, 4, 8, 12, 24, and 48 h post dose for IV bolus and at 0.25, 0.5, 1, 2, 4, 8, 12, 24, and 48 h post dose after oral administration.
Sample Analysis: DBS cards (3 mm punches) of samples or standards were each mixed with a 180 uL solution of methanol: acetonitrile (1/1, v/v) containing internal standard to extract analyte followed by a two-fold dilution with water. A 10 uL aliquot of sample or standard is analyzed using an LC-MS/MS method. For Compound A, the lower limit of quantification (LLQ) was 5 ng/ml and the upper limit of quantification (ULQ) was 2500 ng/mL. For the compound of Example 1, the LLQ was 10 ng/ml and ULQ was 10,000 ng/mL
Calculation of pharmacokinetic parameters: Test article concentration data was uploaded into the Thermo Scientific™ Watson LIMS™ system where noncompartmental analysis was used to calculate Area Under the Curve (AUC) for both IV and PO arms, and Mean Residence Time (MRT) from the IV arm. • Bioavailability (% F) was calculated as follows,
[formula] • IV Clearance (CLIV) was calculated as follows,
[formula] • Volume of distribution at steady state (Vd,ss) was calculated as follows, […]

[3] = Intrinsic clearance in mouse cryopreserved hepatocytes; type: in vitro ADME; details: 0.3 μM substrate, 37° C.
Description: (§1) In Vitro Determination of Intrinsic Clearance in Mice and Human Hepatocytes
(§2) Cryopreserved hepatocytes are used to determine the in vitro metabolic clearance of pharmaceutical candidates. The following assay was conducted to compare the compound of Example 1 to its undeuterated analog, referred to hereinafter as Compound A:
(§3) Compound incubations (0.3 μM substrate concentrations) were then performed in a 96-well plate format at 37° C. with 200,000 cells/well, shaking at approximately 600 rpm. Incubations were initiated by direct addition of 2 μL of the substrate compounds. At 0, 15, 30, 60, and 90 minutes, 20 μL of incubation samples were quenched with 80 μL acetonitrile containing internal standard. Quenched plates were foil sealed, centrifuged for 30 minutes at 4000 rpm and analyzed for substrate by liquid chromatography with tandem mass spectrometry (LC-MS/MS).
(§4) Intrinsic clearance is a measure of the maximum potential liver metabolism of a compound when not restricted by blood flow or protein binding This intrinsic clearance was determined from the elimination rate constants (kdep; min^−1) measured from the disappearance of substrate in the incubations over time, using the following equation: […]

[4] = In vivo determination of Kp,uu,brain in mice; details: male, CD1 (ICR), mouse, 100 mg/kg oral
Text: In Vivo Determination of Kp,uu,Brain in Mice
Unbound brain-to-plasma partition coefficient (Kp,uu,brain) is one of the key pharmacokinetic parameters for evaluating a compound's ability to cross the blood-brain barrier (BBB). It is typically measured in pre-clinical species using the following methodology. Kp,uu,brain values indicate the fraction of free drug in plasma that partitions across the BBB.
Subjects: The subjects for these studies were 12 male CD1 (ICR) mice (Envigo, Indianapolis, IN, USA) between 5-7 weeks old at time of test. Mice were housed in groups of 4 in high density plastic home cages. Food and water were available ad libitum. The rooms were maintained at 73° F. with 30-70% relative humidity and kept on a light/dark cycle of 0600-1800 h.
Agent: The compound of Example 1 was prepared at 10 mg/ml in the 1% HEC, 0.25% TWEEN®80, 0.05% DOWSIL™ vehicle in water. Prepared compound was sonicated in water bath for 30 min until a suspension was formed. Mice were dosed orally at 10 ml/kg for a 100 mg/kg dose.
Dosing and Tissue Collection: For this experiment, ten mice received oral dosing of 100 mg/kg of the compound of Example 1. Mice were then euthanized at 2 h post-dosing via CO2 asphyxiation, plasma samples were collected via cardia puncture, and mouse brains removed, weighed, and frozen on dry ice. Blood samples were stored in EDTA tubes on wet ice and centrifuged at 15 k rpm for 10 min. Plasma was collected, plated in a 96-well plate, and frozen at −80° C.
Pharmacokinetic sampling: Plasma and brain samples obtained were analyzed for Example 1 using an LC-MS/MS method (Q2 Solutions, Indianapolis, IN, USA). Plasma samples were extracted using protein precipitation. The lower limit of quantification was 25 ng/mL, and the upper limit of quantification was 5000 ng/mL. Brain samples were homogenized, and the analyte was extracted using protein precipitation. The lower limit of quantification was 4 ng/g and the upper limit of quantification was 200000 ng/g.
Analysis and Results: Kp,uu,brain was calculated for each time point from the expression below where individual components are derived from a combination of in vitro and in vivo measurements carried out as described above:
where Ctotal,brain, Cu,brain, Ctotal,plasma, and Cu,plasma are total and unbound brain and plasma concentrations, and fu,brain and fu,plasma are fractions unbound in brain and plasma, respectively.

[5] = Intrinsic clearance in human cryopreserved hepatocytes; type: in vitro ADME; details: 0.3 μM substrate, 37° C.
Description: as §1, §2, §3, §4

T1 sequence (Q96LB2 whole entry): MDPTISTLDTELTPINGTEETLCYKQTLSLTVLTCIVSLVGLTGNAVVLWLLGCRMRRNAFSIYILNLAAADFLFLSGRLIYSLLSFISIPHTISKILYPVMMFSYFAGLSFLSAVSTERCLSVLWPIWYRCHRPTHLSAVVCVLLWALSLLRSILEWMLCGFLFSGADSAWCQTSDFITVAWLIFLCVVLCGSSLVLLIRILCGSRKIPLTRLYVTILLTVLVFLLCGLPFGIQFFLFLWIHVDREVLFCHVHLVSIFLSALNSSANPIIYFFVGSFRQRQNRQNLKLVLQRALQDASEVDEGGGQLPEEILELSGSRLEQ

Row | EC50 (human MrgX1 receptor) | Max (Mean ± SEM) (human MrgX1 receptor) | fraction unbound ([1]; mouse brain homogenate, read-out: fraction unbound in brain (fu,brain)) | fraction unbound ([1]; mouse plasma, read-out: fraction unbound in plasma (fu,plasma)) | CLIV [2] | Vd [2] | bioavailability [2] | hepatocyte CLint at 0.3 μM [3] | concentration at 2 h ([4]; brain (unbound), 2 h, using mouse fu,brain 0.011, read-out: Unbound brain conc. (Cu, brain) ± SD) | concentration at 2 h ([4]; brain, 2 h post dose, read-out: Total brain conc. (Ctotal, brain) ± SD) | concentration at 2 h ([4]; plasma (unbound), 2 h, using mouse fu,plasma 0.0667, read-out: Unbound plasma conc. (Cu, plasma) ± SD) | concentration at 2 h ([4]; plasma, 2 h post dose, read-out: Total plasma conc. (Ctotal, plasma) ± SD) | Kp uu at 2 h ([4]; 2 h, unbound brain-to-plasma partition coefficient) | hepatocyte CLint at 0.3 μM [5] | Structure (SMILES)
1 | 28 nM | 106 ± 8.16, n = 4% | – | – | – | – | – | – | – | – | – | – | – | – | [2H]C([2H])([2H])c1c(Oc2c(F)cccc2F)nc(N)nc1C(F)(F)F [Example 2, 4-(2,6-difluorophenoxy)-5-(trideuteriomethyl)-6-(trifluoromethyl)pyrimidin-2-amine]
2 | 22 nM | 111 ± 14.9, n = 4% | 0.011 | 0.0667 | 7.7 ± 1.3 mL/min/kg | 9.5 ± 3.1 L/kg | 60 ± 2.6% | < 1.8 µL/min/1e6 cells | 0.706 ± 0.25 µM | 64.1 ± 22.7 µM | 1.25 ± 0.418 µM | 18.8 ± 6.26 µM | 0.586 | 6.47 µL/min/1e6 cells | [2H]C([2H])([2H])c1c(Oc2c(F)cc(C#N)cc2F)nc(N)nc1C(F)(F)F [Example 1, 4-[2-amino-5-(trideuteriomethyl)-6-(trifluoromethyl)pyrimidin-4-yl]oxy-3,5-difluoro-benzonitrile]
3 | – | – | – | – | 16.1 ± 1.7 mL/min/kg | 6.6 ± 0.1 L/kg | 34 ± 3.7% | < 1.8 µL/min/1e6 cells | – | – | – | – | – | 2.62 µL/min/1e6 cells | Cc1c(Oc2c(F)cc(C#N)cc2F)nc(N)nc1C(F)(F)F [Compound A, reference compound]
